Test results from patent US20220397573A1, “Biomolecular Detection Device” (Hoffmann-La Roche Inc., priority 2019, published 2022).

Tested on: off-target adenosine receptors
Assay: Cross-sensitivity test: stimulation of off-target receptors in HEK293 cells on the biomolecular detection device
Assay type: cell-based
Settings: 5 μM NECA, FIG. 6a
Description: SNAP-β2AR cells were grown to 60-80% confluency in T25 culture flasks, washed twice with warm phosphate-buffered saline (PBS), incubated with 1× Versene for 5 min and resuspended in cell culture medium. In order to decrease baseline signal contributions from non-functional cellular debris, the cells were centrifuged at 50 rpm for 1 min and resuspended in culture media two times sequentially. The cells were seeded to reach confluency on the waveguide in an incubation chamber containing 500 μl cell culture media. Cells were only seeded when viability exceeded 90%, as determined by a Countess automated cell counter (Invitrogen). Except for the real-time establishment of the transmembrane nanopattern, seeded cells were kept in a CO2 incubator at 37° C. for 2 h to allow cells adherence to the sensor chip (and covalent interaction of the SNAP-tag on the β2AR with the SNAP-tag substrate on the chip). The incubation chamber containing the cells was then washed twice with warm HBSS buffer (supplemented with 20 mM HEPES, pH 7.4) adjusted for DMSO and transferred to a modified F3000 ZeptoReader (Zeptosens) which was kept at 35° C. […] For all assays, the signal was monitored for 7 min (baseline measurement) before careful substitution of the buffer with buffer containing the β2AR ligand and monitored for another 21 min thereafter. […]

CCNC(=O)[C@H]1O[C@@H](n2cnc3c(N)ncnc32)[C@H](O)[C@@H]1O [NECA]
signal (mass increase at the receptor relative to the initial mass) upon off-target stimulation: no significant signal change
